Assay results: patent publication US20250115628A1, “FLUORINATED FLUOROPHORES” (HOWARD HUGHES MEDICAL INSTITUTE, priority 2023, published 2025)

What was measured:
Format in all cases: cell-based
[1] = tested on: U2OS cells stably expressing HaloTag®-histone H2B fusion protein; assay: Loading experiments with NIR-excited HaloTag® ligands (nuclear fluorescence); conditions: 200 nM; live cells expressing HaloTag®-histone H2B; excited at λabs
Protocol: (§1) U2OS cells (ATCC) and U2OS cells stably expressing an integrated HaloTag®-histone H2B fusion protein (U2OS·H2B·HaloTag®) were cultured in Dulbecco's modified Eagle medium (DMEM, phenol red-free; Life Technologies) supplemented with 10% (v/v) fetal bovine serum (FBS, Life Technologies), 1 mM GlutaMAX (Life Technologies) and maintained at 37° C. in a humidified 5% (v/v) CO2 environment. These cell lines undergo regular mycoplasma testing by the Janelia Cell Culture Facility. For mitochondrial imaging using the HaloTag® system, U2OS cells were transiently transfected using nucleofection (Lonza) with a plasmid constitutively expressing a HaloTag®-TOMM20 fusion protein, which is located on the outer mitochondrial membrane. For 4^−color imaging, U2OS·H2B·HaloTag® stable cells were transiently transfected by nucleofection with plasmids constitutively expressing a SNAP-tag®-TOMM20 fusion protein, and a GFP-SKL (SKL: serine-lysine-leucine) fusion protein, a prototypical peroxisomal matrix targeting signal. All labeled cells were imaged 18-24 h post-transfection or post-plating.
For loading curve experiments (FIG. 15C), U2OS·H2B·HaloTag® stable cells were incubated with 200 nM HaloTag® ligand conjugated dyes (31HTL, 36HTL, 38HTL, 104HTL, 106HTL, 107HTL, and 108HTL) for 0-4 h at 37° C., washed 3× with dye-free media then fixed with 4% paraformaldehyde in 0.1 M phosphate buffer, pH 7.4 for 15 min at 37° C. Confocal imaging was performed on a Leica Stellaris with an HC PL APO 40×/1.25 glycerol objective using the tunable white light laser (WLL) to excite dyes at their λabs in constant power mode. Fluorescence was quantified as the integrated density of nuclear signals in single-plane images analyzed in FIJI;^82 n=100 nuclear signals per compound.

[2] = tested on: U2OS cells stably expressing HaloTag®-histone H2B fusion protein; assay: Photostability experiments in fixed cells; conditions: 200 nM; 30 bleach cycles
Protocol: as §1, with “For 4^−color imaging, U2OS·H2B·HaloTag® stable cells were transiently transfected by nucleofection with plasmids constitutively expressing a SNAP-tag®-TOMM20 fusion protein, and a GFP-SKL (SKL: serine-lysine-leucine) fusion protein, a prototypical peroxisomal matrix targeting signal. All labeled cells were imaged 18-24 h post-transfection or post-plating.” left out
For photostability experiments (FIG. 1611), U2OS·H2B·HaloTag® stable cells were incubated with 200 nM HaloTag® ligands (31HTL, 106HTL, and 107HTL) for 3 h at 37° C., washed 3× with dye-free media then fixed with 4% paraformaldehyde in 0.1 M phosphate buffer, pH 7.4 for 15 min at 37° C. […] To measure photobleaching, the tunable white light laser (WLL) was used to excite dyes at their λabs in constant power mode over 30 cycles; n=3 where n indicates the number of separate cellular experiments where the intensity of the entire field of view was measured at the indicated time points. […]

[3] = molecular target: T1, U2OS cells stably expressing HaloTag®-histone H2B fusion protein (Rhodococcus rhodochrous, UniProt P0A3G2, A155T/A167V/A172T/A224E/C128F/C176G/D78G/E160K/E257K/H272N/K175M/K195N/L47V/L88M/N227D/P291S/S58T/T264A/Y273L/Y87F); assay: Labeling and confocal microscopy using ligands 59HTL and 105HTL; conditions: 200 nM, 1 h, washed
T1 construct: expressed in transfected cells
T1 sequence (P0A3G2 other isoform, or with tags, fused parts or gaps with the stated changes): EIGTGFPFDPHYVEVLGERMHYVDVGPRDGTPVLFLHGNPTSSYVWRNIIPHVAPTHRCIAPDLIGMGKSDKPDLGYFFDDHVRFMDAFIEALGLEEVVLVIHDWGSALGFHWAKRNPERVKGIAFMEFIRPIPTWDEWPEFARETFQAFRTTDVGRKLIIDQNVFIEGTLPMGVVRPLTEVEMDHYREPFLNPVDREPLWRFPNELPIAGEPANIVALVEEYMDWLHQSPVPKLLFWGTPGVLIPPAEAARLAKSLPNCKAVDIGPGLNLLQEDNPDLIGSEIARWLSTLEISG
Protocol: as §1, with “post-plating. […]” for “post-plating.”

[4] = tested on: JM8·N4 mouse embryonic stem cells stably expressing histone H2B-HaloTag® fusion proteins; assay: Single-particle tracking (SPT) experiments; conditions: 100 Hz imaging
Protocol: SPT experiments were carried out as previously described.^84 JM8·N4 mouse embryonic stem cells (ESCs) stably expressing histone H2B-HaloTag® fusion proteins were generated by co-expressing the PiggyBac EF1a-H2B-HaloTag®-IRES-Neo vector with the super piggyBac transposase as described previously,85 followed by G418 selection (500 μg/mL) for 2 weeks and verified by FACS sorting/confocal imaging staining with JF549-HaloTag® ligand (84HTL; 100 nM, 30 min). Cells were seeded on 25 mm #1.5 coverglass pre-cleaned with KOH and ethanol and coated with iMatrix-511 (TaKaRa #T304) or rhLaminin-521 (Gibco™ #A^29248) according to the manufacturers' instruction. All live-cell imaging experiments were conducted using an ESC imaging medium composed of FluoroBrite DMEM (ThermoFisher) plus 15% v/v ESC-qualified FBS, 1× GlutaMax, 1×NEAA, 0.1 mM 2^−mercaptoethanol, and LIF. For comparison of 59HTL and 89HTL (FIG. 13E, 13F) the histone H2B-HaloTag® ESCs were stained with 5 nM 59HTL for 1 h or 0.1 nM 89HTL for 15 min at 37° C. with 5% (v/v) CO2 to achieve sparse labeling with approximately equal localizations per region of interest (ROI), and then washed with dye-free media 3× for 30 min each wash For comparison of 40HTL, 44HTL, 1HTL, or 89HTL (FIG. 12A-12G) the histone H2B-HaloTag® ESCs were stained with 1 nM of HaloTag® ligands for 15 min at 37° C. with 5% (v/v) CO2 to achieve sparse labeling, and then washed with dye-free media 3× for 30 min each wash.
To quantify the brightness and photostability of the HaloTag® ligands, labeled cells were mounted onto a high speed motorized Nikon Eclipse Ti-E inverted microscope equipped with the following: 100× Apo TIRF 1.49 NA objective with a correction collar; four excitation laser lines (405/488/561/642 nm) and matching TIRF quad cube (405/488/561/640 nm reflection bands); automatic TIRF illuminator with motorized X axis and manual Y axis for beam positioning and focus: perfect focus 3 system; Triple DU-897 iXon Ultra EMCCD cameras on a Cairn Tri-cam emission splitter with filters 525/50 (GFP) 600/50 (RFP) and 705/72 (Cy5); humidified incubation chamber maintained at 37° C. with 5% v/v CO2 (Tokai Hit). SPT was performed at 100 Hz for the comparison of 59HTL and 89HTL (FIG. 13E, 13F) and 50 Hz for the comparison of 40HTL, 44HTL, 1HTL, or 89HTL (FIG. 12A-12G); the imaging session was performed for ˜5000 frames using 100% of maximal excitation power (˜120 mW at the fiber end before the TIRF unit). […] For the comparison of HaloTag® ligands 59HTL and 89HTL (FIG. 13E, 13F) and the comparison of compounds 40HTL, 44HTL, 1HTL, and […] (FIG. 12A-12G), the fluorophores were excited with a 647 nm laser. To minimize drift during imaging, the incubation chamber was fully thermally equilibrated, and all imaging was conducted in an isolated ultra-clean room with minimal mechanical vibrations. The microscope, laser lines, and camera integration were controlled using the Nikon NIS-Elements software. Cells with obvious movement during acquisition were removed from further analysis. SMT analysis was based on multiple target tracing 86 (MTT) with tracking parameters similar to previous work.^84 For SPT brightness (photon counts/molecule/s), intensity values from sparsely-labeled molecules were analyzed. For the comparison of HaloTag® ligands 59HTL and 89HTL (FIG. 13E, 13F): n=147,298 single-molecule events using 59HTL; n=100,392 single-molecule events using 89HTL. […]

CCc1cc2c(c3c1=[N+](C)CCC3)[Si](C)(C)c1c(cc3c4c1CCCN4CCC3)C=2c1c(F)c(C(=O)NCCOCCOCCCCCCCl)c(F)c(F)c1C(=O)[O-] [31HTL, JF698-HaloTag® ligand]
nuclear intensity compared to the other ligands [1]: > 3 fold
brightness and photostability compared with 107HTL and 106HTL [2]: brighter and more photostable

CCc1cc2c(c3c1=[N+](C)CCC3)C(C)(C)c1cc3c(cc1C=2c1c(F)c(C(=O)NCCOCCOCCCCCCCl)c(F)c(F)c1C(=O)[O-])C(C)CC(C)(C)N3CC (stereo not drawn) [59HTL, JF657-HaloTag® ligand]
nuclear labeling of histone H2B-HaloTag® in live cells [3]: excellent nuclear staining with little cellular background after washing
SPT brightness (photons/s) compared with 89HTL [4]: significant improvement in brightness
SPT localizations over time [4]: consistent localizations over time

ATTO 647N-HaloTag® ligand [105HTL, reference compound]
nuclear labeling of histone H2B-HaloTag® in live cells [3]: does not show appreciable labeling in the nucleus
